For 24 compounds, IC50 results are on record in patent US9199984B2, “Inhibition of enzymes” (CHIESI FARMACEUTICI S.p.A., priority 2012, dated 2015).

pIC50: −log10 of the molar value. Structures can show the parent of a compound that is named as a salt.

For the test, the target named is T1, human neutrophil elastase (HNE) (Homo sapiens, UniProt P08246).
T1 construct: purchased Sigma E8140
T1 sequence (P08246 30-247 limits assumed): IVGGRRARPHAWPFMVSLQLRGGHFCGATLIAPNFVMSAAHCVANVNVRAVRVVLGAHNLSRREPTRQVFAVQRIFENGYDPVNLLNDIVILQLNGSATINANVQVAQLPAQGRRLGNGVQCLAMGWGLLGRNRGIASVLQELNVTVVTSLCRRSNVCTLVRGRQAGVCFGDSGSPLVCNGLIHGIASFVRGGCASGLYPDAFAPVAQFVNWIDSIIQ
In words: HNE enzyme activity assay. It counts as biochemical. The conditions noted are these: human leukocyte elastase, substrate MeOSuc-Ala-Ala-Pro-Val-AMC 100 μM, 25° C. for 30 minutes, fluorescence; read-out: HNE inhibition. How it is done:
Compounds of the present invention were tested for potency in a human neutrophil elastase (HNE) enzyme activity assay.
Assays were performed in 96-well plates in a total assay volume of 100 μl. The final concentration of elastase enzyme (human leukocyte elastase, Sigma E8140) was 0.0036 units/well […]. The peptide substrate (MeOSuc-Ala-Ala-Pro-Val-AMC, Calbiochem #324740) was used at a final concentration of 100 μM. The final concentration of DMSO was 1% in the assay buffer (0.05M Tris.HCl, 0.1M NaCl, 0.1M CaCl2, 0.0005% brij-35, pH 7.5). The enzymatic reaction was started by addition of the enzyme and incubated at 25° C. for 30 minutes. After incubation, the reaction was stopped by addition of soybean trypsin inhibitor (Sigma T9003) at a final concentration of 50 μg/well. Fluorescence was measured using a Molecular Devices fluorescence plate reader using 380 nm excitation and 460 nm emission wavelengths.
A dose response to each compound was performed and the effect of compound in each experiment was expressed as a percentage inhibition of the control enzyme fluorescence. Dose response curves were plotted and compound potency (IC50) was determined. Compounds were tested in at least two separate experiments.
In the case of `Cc1c(-c2ccnn2-c2ccc(C#N)cc2)cn2nc(NC(=O)C[N+]3(C)CCN(C)CC3)nc2c1-c1cccc(C(F)(F)F)c1` [Example 25, 1-{[6-[2-(4-Cyano-phenyl)-2H-pyrazol-3-yl]-7-methyl-8-(3-trifluoromethyl-phenyl)-[1,2,4]triazolo[1,5-a]pyridin-2-ylcarbamoyl]-methyl}-1,4-dimethyl-piperazin-1-ium chloride], the pIC50 is 7.00 to 7.70. As for `CC(=O)Nc1nc2c(-c3cccc(C(F)(F)F)c3)c(C)c(-c3ccnn3-c3ccc(C#N)cc3)cn2n1` [Example 26, N-[6-[2-(4-Cyano-phenyl)-2H-pyrazol-3-yl]-7-methyl-8-(3-trifluoromethyl-phenyl)-[1,2,4]triazolo[1,5-a]pyridin-2-yl]-acetamide], the pIC50 was greater than 7.70. With `Cc1c(-c2ccnn2-c2ccc(C#N)cc2)cn2nc(NS(C)(=O)=O)nc2c1-c1cccc(C(F)(F)F)c1` [Example 27, N-[6-[2-(4-Cyano-phenyl)-2H-pyrazol-3-yl]-7-methyl-8-(3-trifluoromethyl-phenyl)-[1,2,4]triazolo[1,5-a]pyridin-2-yl]-methanesulfonamide] the figure was 7.00 to 7.70. Then `Cc1c(-c2ccnn2-c2ccc(C#N)cc2)cn2nc(NCCCN(C)C)nc2c1-c1cccc(C(F)(F)F)c1` [Example 28, 4-{5-[2-(3-Dimethylamino-propylamino)-7-methyl-8-(3-trifluoromethyl-phenyl)-[1,2,4]triazolo[1,5-a]pyridin-6-yl]-pyrazol-1-yl}-benzonitrile], with greater than 7.70. Then `Cc1c(-c2ccnn2-c2ccc(C#N)cc2)cn2nc(NCCN(C)C)nc2c1-c1cccc(C(F)(F)F)c1` [Example 29, 4-{5-[2-(2-Dimethylamino-ethylamino)-7-methyl-8-(3-trifluoromethyl-phenyl)-[1,2,4]triazolo[1,5-a]pyridin-6-yl]-pyrazol-1-yl}-benzonitrile], with 7.00 to 7.70; and `Cc1c(-c2ccnn2-c2ccc(C#N)cc2)cn2nc(NCCCCN(C)C)nc2c1-c1cccc(C(F)(F)F)c1` [Example 30, 4-{5-[2-(4-Dimethylamino-butylamino)-7-methyl-8-(3-trifluoromethyl-phenyl)-[1,2,4]triazolo[1,5-a]pyridin-6-yl]-pyrazol-1-yl}-benzonitrile], with greater than 7.70; and `COc1nc2c(-c3cccc(C(F)(F)F)c3)c(C)c(-c3ccnn3-c3ccc(C#N)cc3)cn2n1` [Example 31, 4-{5-[2-Methoxy-7-methyl-8-(3-trifluoromethyl-phenyl)-[1,2,4]triazolo[1,5-a]pyridin-6-yl]-pyrazol-1-yl}-benzonitrile], with 6.30 to 7.00.

Turning to `Cc1c(-c2ccnn2-c2ccc(C#N)cc2)cn2nc(NCCC[N+](C)(C)C)nc2c1-c1cccc(C(F)(F)F)c1` [Example 32, {3-[6-[2-(4-Cyano-phenyl)-2H-pyrazol-3-yl]-7-methyl-8-(3-trifluoromethyl-phenyl)-[1,2,4]triazolo[1,5-a]pyridin-2-ylamino]-propyl}-trimethyl-ammonium benzenesulfonate], the pIC50 is greater than 7.70. With `Cc1c(-c2ccnn2-c2ccc(C#N)cc2)cn2nc(NCC[N+](C)(C)C)nc2c1-c1cccc(C(F)(F)F)c1` [Example 33, {3-[6-[2-(4-Cyano-phenyl)-2H-pyrazol-3-yl]-7-methyl-8-(3-trifluoromethyl-phenyl)-[1,2,4]triazolo[1,5-a]pyridin-2-ylamino]-ethyl}-trimethyl-ammonium benzenesulfonate] the figure was greater than 7.70. With `Cc1c(-c2ccnn2-c2ccc(C#N)cc2)cn2nc(NCCCC[N+](C)(C)C)nc2c1-c1cccc(C(F)(F)F)c1` [Example 34, {4-[6-[2-(4-Cyano-phenyl)-2H-pyrazol-3-yl]-7-methyl-8-(3-trifluoromethyl-phenyl)-[1,2,4]triazolo[1,5-a]pyridin-2-ylamino]-butyl}-trimethyl-ammonium formate] the figure was greater than 7.70; with `CCOC(=O)Nc1nc2c(-c3cccc(C(F)(F)F)c3)c(C)c(-c3ccnn3-c3ccc(C#N)cc3)cn2n1` [Example 35, [6-[2-(4-Cyano-phenyl)-2H-pyrazol-3-yl]-7-methyl-8-(3-trifluoromethyl-phenyl)-[1,2,4]triazolo[1,5-a]pyridin-2-yl]-carbamic acid ethyl ester], greater than 7.70; with `COCCOC(=O)Nc1nc2c(-c3cccc(C(F)(F)F)c3)c(C)c(-c3ccnn3-c3ccc(C#N)cc3)cn2n1` [Example 36, [6-[2-(4-Cyano-phenyl)-2H-pyrazol-3-yl]-7-methyl-8-(3-trifluoromethyl-phenyl)-[1,2,4]triazolo[1,5-a]pyridin-2-yl]-carbamic acid 2-methoxyethyl ester], greater than 7.70. With `Cc1c(-c2ccnn2-c2ccc(C#N)cc2)cn2nc(NC(=O)OCCC[N+](C)(C)C)nc2c1-c1cccc(C(F)(F)F)c1` [Example 37, {3-[6-[2-(4-Cyano-phenyl)-2H-pyrazol-3-yl]-7-methyl-8-(3-trifluoromethyl-phenyl)-[1,2,4]triazolo[1,5-a]pyridin-2-ylcarbamoyloxy]-propyl}-trimethyl-ammonium formate] the figure was greater than 7.70. As to `Cc1c(-c2ccnn2-c2ccc(C#N)cc2)cn2nc(NC(=O)NCCC[N+](C)(C)C)nc2c1-c1cccc(C(F)(F)F)c1` [Example 38, (3-{3-[6-[2-(4-Cyano-phenyl)-2H-pyrazol-3-yl]-7-methyl-8-(3-trifluoromethyl-phenyl)-[1,2,4]triazolo[1,5-a]pyridin-2-yl]-ureido}-propyl)-trimethyl-ammonium formate], the pIC50 is greater than 7.70.

`CC(=O)Nc1nc2c(-c3cccc(C(F)(F)F)c3)c(C)c(-c3ncnn3-c3ccc(C#N)cc3)cn2n1` [Example 39, N-[6-[2-(4-Cyano-phenyl)-2H-[1,2,4]triazol-3-yl]-7-methyl-8-(3-trifluoromethyl-phenyl)-[1,2,4]triazolo[1,5-a]pyridin-2-yl]-acetamide]: the pIC50 is greater than 7.70. Turning to `Cc1c(-c2ccnn2-c2ccc(C#N)cc2S(C)(=O)=O)cn2nc(N)nc2c1-c1cccc(C(F)(F)F)c1` [Example 40, 4-{5-[2-Amino-7-methyl-8-(3-trifluoromethyl-phenyl)-[1,2,4]triazolo[1,5-a]pyridin-6-yl]pyrazol-1-yl}-3-methanesulfonyl-benzonitrile], the pIC50 is greater than 7.70. With `CC(=O)Nc1nc2c(-c3cccc(C(F)(F)F)c3)c(C)c(-c3ccnn3-c3ccc(C#N)cc3F)cn2n1` [Example 41, N-[6-[2-(4-Cyano-2-fluoro-phenyl)-2H-pyrazol-3-yl]-7-methyl-8-(3-trifluoromethyl-phenyl)-[1,2,4]triazolo[1,5-a]pyridin-2-yl]-acetamide] the figure was greater than 7.70. For the compound `CC(=O)Nc1nc2c(-c3cccc(C(F)(F)F)c3)c(C)c(-c3c(C)cnn3-c3ccc(C#N)cc3)cn2n1` [Example 42, N-[6-[2-(4-Cyano-phenyl)-4-methyl-2H-pyrazol-3-yl]-7-methyl-8-(3-trifluoromethyl-phenyl)-[1,2,4]triazolo[1,5-a]pyridin-2-yl]-acetamide], the pIC50 was greater than 7.70. With `CC(=O)Nc1nc2c(-c3cccc(C(F)(F)F)c3)c(C)c(-c3ccccc3-c3ccc(C#N)cc3)cn2n1` [Example 43] the figure was greater than 7.70; with `CC(=O)Nc1nc2c(-c3cccc(OC(F)(F)F)c3)c(C)c(-c3ccnn3-c3ccc(C#N)cc3)cn2n1` [Example 44, N-[6-[2-(4-Cyano-phenyl)-2H-pyrazol-3-yl]-7-methyl-8-(3-trifluoromethoxy-phenyl)-[1,2,4]triazolo[1,5-a]pyridin-2-yl]-acetamide], 7.00 to 7.70.

With `Cc1c(-c2ccnn2-c2ccc(C#N)cc2)cn2nc(NC(=O)CC[S+](C)[O-])nc2c1-c1cccc(C(F)(F)F)c1` (stereo not drawn) [Example 45, N-[6-[2-(4-Cyano-phenyl)-2H-pyrazol-3-yl]-7-methyl-8-(3-trifluoromethyl-phenyl)[1,2,4]triazolo[1,5-a]pyridin-2-yl]-3-methanesulfinyl-propionamide], the pIC50 was greater than 7.70. Regarding `Cc1c(-c2ccnn2-c2ccc(C#N)cc2)cn2nc(NC(=O)CCS(C)(=O)=O)nc2c1-c1cccc(C(F)(F)F)c1` [Example 46, N-[6-[2-(4-Cyano-phenyl)-2H-pyrazol-3-yl]-7-methyl-8-(3-trifluoromethyl-phenyl)-[1,2,4]triazolo[1,5-a]pyridin-2-yl]-3-methanesulfonyl-propionamide], the pIC50 was greater than 7.70.

Turning to `Cc1c(-c2ccnn2-c2ccc(C#N)cc2)cn2nc(NCCCS(C)(=O)=O)nc2c1-c1cccc(C(F)(F)F)c1` [Example 47, 4-{5-[2-(3-Methanesulfonyl-propylamino)-7-methyl-8-(3-trifluoromethyl-phenyl)-[1,2,4]triazolo[1,5-a]pyridin-6-yl]-pyrazol-1-yl}-benzonitrile], the pIC50 was greater than 7.70. With `Cc1c(-c2ccnn2-c2ccc(C#N)cc2)cn2nc(NCCO)nc2c1-c1cccc(C(F)(F)F)c1` [Example 48, 4-{5-[2-(2-Hydroxy-ethylamino)-7-methyl-8-(3-trifluoromethyl-phenyl)-[1,2,4]triazolo[1,5-a]pyridin-6-yl]-pyrazol-1-yl}-benzonitrile], the pIC50 was greater than 7.70.
